Measurements: patent EP1246814B1, “COMPOUNDS AND METHODS FOR MODULATION OF ESTROGEN RECEPTORS” (SIGNAL PHARMACEUTICALS, INC., priority 1999, dated 2001)
Structures can show the parent of a compound that is named as a salt. Where two headings read alike, the source gives them in different places.

Tests used:
U2OS IL-6 ER-Minus = experiment: IL-6 production in ER-minus U2OS osteosarcoma cells; type: cell-based; settings: Homo sapiens
IL-6 = experiment: Human bone cell co-culture system, IL-6 production; type: cell-based; settings: for IC50: human bone co-culture system of Example 12
Protocol: (§1) The generation of osteoblastic cells from normal adult femoral travecular bone from patients without evidence of metabolic bone disease was carried out as previously described (Kung Sutherland et al., Osteoporosis International 5:335-343, 1995; Wong et al., J Bone Miner 5:803-813, 1990). Bone fragments were cleaned of adherent tissue and blood and cultured for 4 weeks in medium containing Ham's F12 supplemented with 28 mM HEPES, pH 7.4, 10% FCS, 1.1 mM CaCl2, 2 mM glutamine, and 1% antibiotic-antimycotic agent. Upon confluency, the cells were harvested and immortalized using a retroviral vector (pLXSN) containing the neomycin resistance gene and the human papillomaviral (HPV18) E6 and E7 concogenes (International Journal of Oncology 6:167-174, 1995). The immortalized osteoblastic cells were selected in medium containing G418 (600 µg/ml).
(§2) The human U937 moncytic cell line (cloned from the commercially available cells by serial dilution) was maintained in RPMI 1640 medium containing 10% FCS and 1% antibiotic-antimycotic agent.
The co-culture system was established as follows. Human osteoblastic cells were plated in 96-well dishes at a density of 5 x 10^3 cells/well. U937 cells in RPMI medium (5 x 10^4 cells/well) were layered over the osteoblasts. The formation of osteoclast-like cells was induced with 100 nM PMA. To determine the effects of compounds or the neutralizing antibodies to IL-6 (Sigma) and GM-CSF (Pharmingen) on the formation of osteoclast-like cells, the compounds or the antibodies were added 30 minutes prior to the addition of PMA. The cultures were stopped after 96 hrs and processed for histochemical or immunohistochemical analyses.

human recombinant ER-α = target: T1, human recombinant ER-α (Homo sapiens, UniProt P03372); experiment: Solid phase ER binding assay (3H-estradiol competition), ER-α
T1 sequence (P03372 1-595): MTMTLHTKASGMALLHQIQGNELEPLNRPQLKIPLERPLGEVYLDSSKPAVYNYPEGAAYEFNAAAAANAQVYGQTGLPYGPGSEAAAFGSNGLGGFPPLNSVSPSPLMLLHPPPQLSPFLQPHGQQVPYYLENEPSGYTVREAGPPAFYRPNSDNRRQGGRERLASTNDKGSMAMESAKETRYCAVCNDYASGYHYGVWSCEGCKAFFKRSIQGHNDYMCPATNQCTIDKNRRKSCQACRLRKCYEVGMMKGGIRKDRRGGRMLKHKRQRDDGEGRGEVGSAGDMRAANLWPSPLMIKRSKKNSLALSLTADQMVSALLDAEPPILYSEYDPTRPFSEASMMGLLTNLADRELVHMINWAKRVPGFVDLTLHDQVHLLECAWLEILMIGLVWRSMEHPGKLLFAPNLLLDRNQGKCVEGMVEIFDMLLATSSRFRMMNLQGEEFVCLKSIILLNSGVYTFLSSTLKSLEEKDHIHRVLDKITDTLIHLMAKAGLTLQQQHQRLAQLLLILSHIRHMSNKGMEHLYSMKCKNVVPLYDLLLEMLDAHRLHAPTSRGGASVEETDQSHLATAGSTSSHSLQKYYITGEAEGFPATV

human full-length ER-α = target: T2, human full-length ER-α (Homo sapiens, UniProt P03372); experiment: IL-6 production in U2OS osteosarcoma cells stably transfected with ER-α; type: cell-based
T2 construct: expression vectors for human full-length ER-α or ER-β; expressed in transfected cells
T2 sequence (P03372 1-595): T1 sequence (P03372 1-595)
Protocol: (§3) Human U2OS osteosarcoma cells (ATCC) were stably transfected with expression vectors for human full-length ER-α or ER-β, respectively, using standard molecular biology techniques. Stable subclones were generated that expressed high levels of ER-α or ER-β mRNA. The expression of ER-α and ER-β was confirmed using RNase protection analysis.
(§4) Cells were plated into 96-well plates at a density of 8000 cells per well in phenol red-free media with charcoal-stripped fetal calf serum. Twenty-four hours later, cells were either treated with vehicle (0.2% DMSO) or test compound at the concentrations indicated (in 0.2% DMSO). Thirty minutes later cells were stimulated with 10 ng/ml IL-1β and 10 ng/ml TNF-α. Twenty-four hours later the media supernatant was analyzed for cytokine production (IL-6) using commercially available ELISA kits following the manufacturer's instructions. Cytokine production in the presence of vehicle (0.2% DMSO) was set to 100%.

human full-length ER-β = target: T3, human full-length ER-β (Homo sapiens, UniProt Q92731); experiment: IL-6 production in U2OS osteosarcoma cells stably transfected with ER-β; type: cell-based; settings: for ER subtype specificity (ER-β versus ER-α): comparison of the U2OS IL-6 IC50 values of Table 4
T3 construct: expression vectors for human full-length ER-α or ER-β; expressed in transfected cells
Protocol: as §3, §4

GM-CSF = experiment: Human bone cell co-culture system, GM-CSF production; type: cell-based
Protocol: as §1, §2
The co-culture system was established as follows. Human osteoblastic cells were plated in 96-well dishes at a density of 5 x 10^3 cells/well. U937 cells in RPMI medium (5 x 10^4 cells/well) were layered over the osteoblasts. The formation of osteoclast-like cells was induced with 100 nM PMA. […]

[1] = 3-day immature rat uterine bioassay; settings: s.c. administration
human recombinant ER-β = human recombinant ER-β (Homo sapiens, UniProt Q92731); experiment: Solid phase ER binding assay (3H-estradiol competition), ER-β; settings: ER binding assay of Example 18
[2] = 28-day uterine bioassay in ovariectomized rats; type: in vivo
[3] = ER binding assay of Example 18, read-out: ER Binding Assay ER-α (Ki)

T3 sequence (Q92731 whole entry): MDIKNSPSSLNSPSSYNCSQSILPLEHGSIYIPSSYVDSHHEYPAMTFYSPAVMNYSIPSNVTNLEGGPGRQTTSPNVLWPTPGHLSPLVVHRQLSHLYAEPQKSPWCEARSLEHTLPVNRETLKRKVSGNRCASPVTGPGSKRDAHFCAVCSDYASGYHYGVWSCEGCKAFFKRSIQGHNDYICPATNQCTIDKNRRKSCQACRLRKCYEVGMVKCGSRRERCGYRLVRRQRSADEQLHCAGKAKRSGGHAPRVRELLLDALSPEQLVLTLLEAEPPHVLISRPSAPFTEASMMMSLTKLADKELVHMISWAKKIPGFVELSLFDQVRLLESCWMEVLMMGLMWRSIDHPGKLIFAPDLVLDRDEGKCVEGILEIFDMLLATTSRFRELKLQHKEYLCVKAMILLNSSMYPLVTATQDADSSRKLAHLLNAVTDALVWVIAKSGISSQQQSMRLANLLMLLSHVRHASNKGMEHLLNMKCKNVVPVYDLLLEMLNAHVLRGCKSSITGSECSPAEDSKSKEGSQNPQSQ
human recombinant ER-β, sequence (Q92731 whole entry): as above

CCC(=C(c1ccc(O)cc1)c1ccc(OCCN(C)C)cc1)c1ccccc1 [4-Hydroxy-Tamoxifen]
IC50 (U2OS IL-6 ER-Minus): > 1000 nM

CCN(CC)CCOc1ccc(-c2c(-c3ccccc3)c(=O)oc3ccccc23)cc1 ["L-20", reference compound]
IC50 (IL-6; read-out: IL-6 Activity (IC50)): > 1000 nM | Ki (human recombinant ER-α; [3]): > 10000 nM | IC50 (human full-length ER-α): > 1000 nM | IC50 (human full-length ER-β): > 1000 nM | IC50 (U2OS IL-6 ER-Minus): > 1000 nM

O=c1oc2cc(O)ccc2c(Cc2ccc(OCCN3CCCCC3)cc2)c1-c1ccccc1 [Compound No. 1, 3-PHENYL-4-[4-(2-{PIPERIDIN-1-YL})ETHOXY]-BENZYL-7-HYDROXYCOUMARIN]
IC50 (IL-6; read-out: IC50 with respect to IL-6): 10 nM | IC50 (GM-CSF; human bone co-culture system of Example 12, read-out: IC50 with respect to GM-CSF): 38 nM | Ki (human recombinant ER-α; read-out: Solid Phase ER Binding Ki (nM) ER-α, ER-α 15 nM, 30 nM 3H-estradiol, room temperature, average of at least 3 experiments): 1.4 nM | increase in uterine weight ([1]; not statistically different from vehicle (PEG-400)): ~30%

CCN(CC)CCOc1ccc(-c2c(-c3ccccc3)c(=O)oc3cc(O)ccc23)cc1 [Compound No. 38]
IC50 (IL-6; read-out: IL-6 Activity (IC50)): 175 nM | Ki (human recombinant ER-α; [3]): 690 nM | Ki (human recombinant ER-β): 1560 nM | IC50 (human full-length ER-α): > 1000 nM | IC50 (human full-length ER-β): 165 nM | ER subtype specificity (ER-β versus ER-α) (human full-length ER-β): specificity for ER-β over ER-α | IC50 (U2OS IL-6 ER-Minus): > 10000 nM

C[C@]12CC[C@@H]3c4ccc(O)cc4CC[C@H]3[C@@H]1CC[C@@H]2O [Estradiol, 17β-estradiol]
production of IL-6 (IL-6; co-culture system): suppress the production of IL-6 | production of GM-CSF (GM-CSF; co-culture system): reduced the production of GM-CSF | increase in uterine weight ([2]; ovariectomized rats, 28-day, daily s.c. injection): 550% | IC50 (U2OS IL-6 ER-Minus): > 1000 nM | increase in uterine weight [1]: 4.5 fold

O=C(c1ccc(OCCN2CCCCC2)cc1)c1c(-c2ccc(O)cc2)sc2cc(O)ccc12 [Raloxifene HCl, Raloxifene Hydrochloride]
increase in uterine weight ([2]; female, rat, in vivo, sc, 28 day): ~70% | IC50 (U2OS IL-6 ER-Minus): > 1000 nM | increase in uterine weight ([1]; 1mg/kg dose): up to 50%

O=c1oc2cc(O)ccc2c(-c2ccc(OCCN3CCCCC3)cc2)c1-c1ccc(Cl)cc1 [compound 16]
IC50 (human full-length ER-α): 325 nM | IC50 (human full-length ER-β): 51 nM | ER subtype specificity (ER-β versus ER-α) (human full-length ER-β): specificity for ER-β over ER-α | IC50 (U2OS IL-6 ER-Minus): > 1000 nM
